In ChEMBL document CHEMBL1201862, “PubChem BioAssay data set” (2004):
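Compound exposure: 48 hours, 5 concentrations, 96-well plates. GI50 = concentration required for 50% inhibition of growth.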 Activity calls are given as the source filed them. Cut-off read from the data, not from the text of the source: active = GI50 up to about 1.1 µM and inactive = higher.

Assays:
Assay in all cases: NCI tumour cell line growth inhibition, 48 h
T47D = test system: T47D
SK-MEL-28 = test system: SK-MEL-28
MDA-N = test system: MDA-N
HCC 2998 = test system: HCC 2998
DU-145 = test system: DU-145
UACC-62 = test system: UACC-62
OVCAR-3 = test system: OVCAR-3
NCI/ADR-RES = test system: NCI/ADR-RES
SNB-19 = test system: SNB-19
HT-29 = test system: HT-29
EKVX = test system: EKVX
OVCAR-4 = test system: OVCAR-4
BT-549 = test system: BT-549
COLO 205 = test system: COLO 205
SW-620 = test system: SW-620

SMILES	GI50 (T47D)	GI50 (SK-MEL-28)	GI50 (MDA-N)	GI50 (HCC 2998)	GI50 (DU-145)	GI50 (UACC-62)	GI50 (OVCAR-3)	GI50 (NCI/ADR-RES)	GI50 (SNB-19)	GI50 (HT-29)	GI50 (EKVX)	GI50 (OVCAR-4)	GI50 (BT-549)	GI50 (COLO 205)	GI50 (SW-620)
O=[N+]([O-])/C=C/c1c(Cl)cccc1Cl	2.06 µM (inactive)	4.97 µM (inactive)	2.89 µM (inactive)	3.45 µM (inactive)	9.06 µM (inactive)	2.77 µM (inactive)	1.3 µM (inactive)	1.96 µM (inactive)	5.28 µM (inactive)	2.45 µM (inactive)	5.65 µM (inactive)	3.56 µM (inactive)	2.01 µM (inactive)	0.849 µM (active)	0.966 µM (active)
COc1cccc(/C=N/NC(=O)CN(C)C)c1O	> 100 µM (inactive)	> 100 µM (inactive)	> 100 µM (inactive)	> 100 µM (inactive)	> 100 µM (inactive)	> 100 µM (inactive)	> 100 µM (inactive)	> 100 µM (inactive)	> 100 µM (inactive)	> 100 µM (inactive)	> 100 µM (inactive)	> 100 µM (inactive)	> 100 µM (inactive)	> 100 µM (inactive)	> 100 µM (inactive)
CCOC(=O)Cc1csc2[n+]1C(=O)/C(=C/c1cccc(OC)c1O)S2	36.3 µM (inactive)	84.9 µM (inactive)	40.1 µM (inactive)	32.2 µM (inactive)	73.3 µM (inactive)	97.7 µM (inactive)	38.2 µM (inactive)	47 µM (inactive)	50.9 µM (inactive)	39 µM (inactive)	74.1 µM (inactive)	64.4 µM (inactive)	13.8 µM (inactive)	78.5 µM (inactive)	> 100 µM (inactive)
O=C(N/N=C\c1cccc(O)c1)c1ccncc1	> 100 µM (inactive)	> 100 µM (inactive)	> 100 µM (inactive)	> 100 µM (inactive)	> 100 µM (inactive)	> 100 µM (inactive)	> 100 µM (inactive)	> 100 µM (inactive)	> 100 µM (inactive)	> 100 µM (inactive)	> 100 µM (inactive)	> 100 µM (inactive)	> 100 µM (inactive)	–	> 100 µM (inactive)
NC(=O)N/N=C1/CCC(O)CC1CC(=O)O (stereo not given)	> 100 µM (inactive)	> 100 µM (inactive)	> 100 µM (inactive)	–	> 100 µM (inactive)	> 100 µM (inactive)	> 100 µM (inactive)	> 100 µM (inactive)	> 100 µM (inactive)	> 100 µM (inactive)	> 100 µM (inactive)	> 100 µM (inactive)	> 100 µM (inactive)	> 100 µM (inactive)	> 100 µM (inactive)
Cc1ccc(C2=Nn3c(nc4sc(-c5ccccc5)cc4c3=O)SC2)cc1	> 100 µM (inactive)	> 100 µM (inactive)	> 100 µM (inactive)	> 100 µM (inactive)	> 100 µM (inactive)	> 100 µM (inactive)	> 100 µM (inactive)	> 100 µM (inactive)	–	> 100 µM (inactive)	> 100 µM (inactive)	> 100 µM (inactive)	> 100 µM (inactive)	> 100 µM (inactive)	> 100 µM (inactive)
COC(=O)C1=C(O)C(C(=O)OC)C2CC(=O)CC1C2(C)C (stereo not given)	> 100 µM (inactive)	> 100 µM (inactive)	> 100 µM (inactive)	> 100 µM (inactive)	> 100 µM (inactive)	> 100 µM (inactive)	> 100 µM (inactive)	> 100 µM (inactive)	> 100 µM (inactive)	> 100 µM (inactive)	> 100 µM (inactive)	> 100 µM (inactive)	> 100 µM (inactive)	> 100 µM (inactive)	> 100 µM (inactive)
CC(=O)NCCC1CN(C(=O)/C=C\C#C[Si](C)(C)C)c2ccccc21 (stereo not given)	23.3 µM (inactive)	50.8 µM (inactive)	13.5 µM (inactive)	20.1 µM (inactive)	23.3 µM (inactive)	8.49 µM (inactive)	16 µM (inactive)	22.1 µM (inactive)	26.3 µM (inactive)	20.3 µM (inactive)	14.8 µM (inactive)	18.9 µM (inactive)	21 µM (inactive)	4.88 µM (inactive)	35.2 µM (inactive)
CS(=O)(=O)N1CC(CCl)c2ccc(O)cc21 (stereo not given)	7.4 µM (inactive)	3.4 µM (inactive)	1.52 µM (inactive)	1.95 µM (inactive)	3.46 µM (inactive)	4.17 µM (inactive)	2.95 µM (inactive)	2.56 µM (inactive)	–	2.86 µM (inactive)	5.31 µM (inactive)	2.86 µM (inactive)	2.02 µM (inactive)	1.9 µM (inactive)	2.6 µM (inactive)
N[C@@H]1C[C@H](N)c2c(Cl)sc(Cl)c21	> 100 µM (inactive)	> 100 µM (inactive)	> 100 µM (inactive)	> 100 µM (inactive)	> 100 µM (inactive)	> 100 µM (inactive)	> 100 µM (inactive)	> 100 µM (inactive)	> 100 µM (inactive)	–	> 100 µM (inactive)	> 100 µM (inactive)	> 100 µM (inactive)	> 100 µM (inactive)	> 100 µM (inactive)
CC1OC2OC3C(OCC(O)C3O)OC(=O)[C@]34CCC(C)(C)CC3C3=CCC5[C@@]6(C)C[C@H](O)[C@H](OC7OC(CO)C(O)C(O)C7OC7OCC(OC(=O)CC(C)(O)CC(=O)OC1C(O)C2O)C(O)C7O)[C@@](C)(CO)C6CC[C@@]5(C)[C@]3(C)CC4 (stereo not given in full)	4.98 µM (inactive)	1.96 µM (inactive)	4.05 µM (inactive)	2.43 µM (inactive)	3.97 µM (inactive)	4.3 µM (inactive)	9.64 µM (inactive)	12.7 µM (inactive)	6.22 µM (inactive)	2.73 µM (inactive)	–	–	10.2 µM (inactive)	1.89 µM (inactive)	8.85 µM (inactive)
CCCCN1C(=O)CS/C1=N/Nc1nc2c([nH]1)c(=O)n(C)c(=O)n2C	34.2 µM (inactive)	20 µM (inactive)	14.6 µM (inactive)	> 100 µM (inactive)	19.2 µM (inactive)	86.5 µM (inactive)	64.1 µM (inactive)	> 100 µM (inactive)	37.8 µM (inactive)	23.9 µM (inactive)	> 100 µM (inactive)	19.5 µM (inactive)	> 100 µM (inactive)	> 100 µM (inactive)	–
O=C1CCSSCCC(=O)NCCN1	> 100 µM (inactive)	> 100 µM (inactive)	> 100 µM (inactive)	–	> 100 µM (inactive)	> 100 µM (inactive)	> 100 µM (inactive)	> 100 µM (inactive)	> 100 µM (inactive)	> 100 µM (inactive)	> 100 µM (inactive)	> 100 µM (inactive)	> 100 µM (inactive)	> 100 µM (inactive)	> 100 µM (inactive)
Cc1ccc2c(c1)[n+]([O-])c(N)n[n+]2[O-]	93.5 µM (inactive)	> 100 µM (inactive)	> 100 µM (inactive)	–	> 100 µM (inactive)	> 10 µM (inactive)	> 100 µM (inactive)	> 100 µM (inactive)	> 100 µM (inactive)	> 100 µM (inactive)	> 100 µM (inactive)	> 100 µM (inactive)	> 100 µM (inactive)	63.1 µM (inactive)	> 100 µM (inactive)
